Reference: the NIST ThermoML archive (doi:10.1016/j.jct.2016.07.012)
± gives the expanded uncertainty stated by the source.

Assay: molar heat capacity at constant pressure
Details: 101.33 kPa, Small (less than 1 g) adiabatic calorimetry

CCCCn1cc[n+](C)c1.F[P-](F)(F)(F)(F)F [1-butyl-3-methylimidazolium hexafluorophosphate]
molar heat capacity at constant pressure (201.61 K, Metastable crystal): 280.4 ± 1.5 J/K/mol | molar heat capacity at constant pressure (201.89 K, Metastable crystal): 291.8 ± 1.5 J/K/mol | molar heat capacity at constant pressure (203.54 K, Metastable crystal): 280.7 ± 1.5 J/K/mol | molar heat capacity at constant pressure (203.78 K, Metastable crystal): 296.2 ± 1.5 J/K/mol | molar heat capacity at constant pressure (205.47 K, Metastable crystal): 281 ± 1.5 J/K/mol | molar heat capacity at constant pressure (205.65 K, Metastable crystal): 301.3 ± 1.6 J/K/mol | molar heat capacity at constant pressure (207.4 K, Metastable crystal): 281.3 ± 1.5 J/K/mol | molar heat capacity at constant pressure (207.51 K, Metastable crystal): 306.9 ± 1.6 J/K/mol | molar heat capacity at constant pressure (209.34 K, Metastable crystal): 281.8 ± 1.5 J/K/mol | molar heat capacity at constant pressure (209.36 K, Metastable crystal): 313.5 ± 1.6 J/K/mol | molar heat capacity at constant pressure (211.19 K, Metastable crystal): 322.6 ± 1.7 J/K/mol | molar heat capacity at constant pressure (211.28 K, Metastable crystal): 282.5 ± 1.5 J/K/mol | molar heat capacity at constant pressure (213 K, Metastable crystal): 333.5 ± 1.7 J/K/mol | molar heat capacity at constant pressure (213.22 K, Metastable crystal): 283.4 ± 1.5 J/K/mol | molar heat capacity at constant pressure (214.77 K, Metastable crystal): 351.9 ± 1.8 J/K/mol | molar heat capacity at constant pressure (215.16 K, Metastable crystal): 284.4 ± 1.5 J/K/mol | molar heat capacity at constant pressure (216.47 K, Metastable crystal): 395.3 ± 2.1 J/K/mol | molar heat capacity at constant pressure (217.1 K, Metastable crystal): 285.1 ± 1.5 J/K/mol | molar heat capacity at constant pressure (218.22 K, Metastable crystal): 317.7 ± 1.7 J/K/mol | molar heat capacity at constant pressure (219.04 K, Metastable crystal): 285.7 ± 1.5 J/K/mol | molar heat capacity at constant pressure (220.12 K, Metastable crystal): 285.9 ± 1.5 J/K/mol | molar heat capacity at constant pressure (220.98 K, Metastable crystal): 286.7 ± 1.5 J/K/mol | molar heat capacity at constant pressure (222.07 K, Metastable crystal): 286.7 ± 1.5 J/K/mol | molar heat capacity at constant pressure (222.93 K, Metastable crystal): 287.8 ± 1.5 J/K/mol | molar heat capacity at constant pressure (224.04 K, Metastable crystal): 287.5 ± 1.5 J/K/mol | molar heat capacity at constant pressure (224.86 K, Metastable crystal): 288.7 ± 1.5 J/K/mol | molar heat capacity at constant pressure (226.9 K, Metastable crystal): 290 ± 1.5 J/K/mol | molar heat capacity at constant pressure (228.84 K, Metastable crystal): 291.1 ± 1.5 J/K/mol | molar heat capacity at constant pressure (230.78 K, Metastable crystal): 292 ± 1.5 J/K/mol | molar heat capacity at constant pressure (232.72 K, Metastable crystal): 293 ± 1.5 J/K/mol | molar heat capacity at constant pressure (234.67 K, Metastable crystal): 294.1 ± 1.5 J/K/mol | molar heat capacity at constant pressure (236.61 K, Metastable crystal): 295.2 ± 1.5 J/K/mol | molar heat capacity at constant pressure (238.55 K, Metastable crystal): 296.3 ± 1.5 J/K/mol | molar heat capacity at constant pressure (240.49 K, Metastable crystal): 298.3 ± 1.5 J/K/mol | molar heat capacity at constant pressure (242.43 K, Metastable crystal): 299.6 ± 1.6 J/K/mol | molar heat capacity at constant pressure (286.27 K, Liquid): 400.3 ± 2 J/K/mol | molar heat capacity at constant pressure (287.99 K, Liquid): 401.2 ± 2.1 J/K/mol | molar heat capacity at constant pressure (289.7 K, Liquid): 402.1 ± 2.1 J/K/mol | molar heat capacity at constant pressure (291.41 K, Liquid): 403 ± 2.1 J/K/mol | molar heat capacity at constant pressure (293.12 K, Liquid): 404 ± 2.1 J/K/mol | molar heat capacity at constant pressure (294.83 K, Liquid): 405.1 ± 2.1 J/K/mol | molar heat capacity at constant pressure (296.54 K, Liquid): 405.8 ± 2.1 J/K/mol | molar heat capacity at constant pressure (298.25 K, Liquid): 406.9 ± 2.1 J/K/mol | molar heat capacity at constant pressure (299.96 K, Liquid): 407.8 ± 2.1 J/K/mol | molar heat capacity at constant pressure (301.71 K, Liquid): 409.1 ± 2.1 J/K/mol | molar heat capacity at constant pressure (303.52 K, Liquid): 410.1 ± 2.1 J/K/mol | molar heat capacity at constant pressure (305.33 K, Liquid): 411 ± 2.1 J/K/mol | molar heat capacity at constant pressure (307.14 K, Liquid): 412 ± 2.1 J/K/mol | molar heat capacity at constant pressure (308.95 K, Liquid): 412.9 ± 2.1 J/K/mol | molar heat capacity at constant pressure (310.75 K, Liquid): 414 ± 2.1 J/K/mol | molar heat capacity at constant pressure (312.56 K, Liquid): 415.1 ± 2.1 J/K/mol | molar heat capacity at constant pressure (314.36 K, Liquid): 415.8 ± 2.1 J/K/mol | molar heat capacity at constant pressure (316.16 K, Liquid): 417 ± 2.1 J/K/mol | molar heat capacity at constant pressure (317.97 K, Liquid): 418 ± 2.1 J/K/mol | molar heat capacity at constant pressure (319.77 K, Liquid): 419.2 ± 2.1 J/K/mol | molar heat capacity at constant pressure (321.57 K, Liquid): 420.1 ± 2.1 J/K/mol | molar heat capacity at constant pressure (323.38 K, Liquid): 421 ± 2.1 J/K/mol | molar heat capacity at constant pressure (325.18 K, Liquid): 422 ± 2.2 J/K/mol | molar heat capacity at constant pressure (326.98 K, Liquid): 423.2 ± 2.2 J/K/mol | molar heat capacity at constant pressure (328.78 K, Liquid): 423.9 ± 2.2 J/K/mol | molar heat capacity at constant pressure (330.59 K, Liquid): 425 ± 2.2 J/K/mol | molar heat capacity at constant pressure (332.39 K, Liquid): 426.1 ± 2.2 J/K/mol | molar heat capacity at constant pressure (334.19 K, Liquid): 427.2 ± 2.2 J/K/mol | molar heat capacity at constant pressure (335.99 K, Liquid): 428.2 ± 2.2 J/K/mol | molar heat capacity at constant pressure (337.79 K, Liquid): 429.2 ± 2.2 J/K/mol | molar heat capacity at constant pressure (339.59 K, Liquid): 430.2 ± 2.2 J/K/mol | molar heat capacity at constant pressure (341.39 K, Liquid): 431.1 ± 2.2 J/K/mol | molar heat capacity at constant pressure (343.18 K, Liquid): 432.1 ± 2.2 J/K/mol | molar heat capacity at constant pressure (344.98 K, Liquid): 433.1 ± 2.2 J/K/mol | molar heat capacity at constant pressure (346.78 K, Liquid): 434.1 ± 2.2 J/K/mol | molar heat capacity at constant pressure (348.58 K, Liquid): 435.2 ± 2.2 J/K/mol | molar heat capacity at constant pressure (350.38 K, Liquid): 436.3 ± 2.2 J/K/mol | molar heat capacity at constant pressure (352.18 K, Liquid): 437.4 ± 2.2 J/K/mol | molar heat capacity at constant pressure (353.99 K, Liquid): 438.3 ± 2.2 J/K/mol | molar heat capacity at constant pressure (355.79 K, Liquid): 439.3 ± 2.2 J/K/mol | molar heat capacity at constant pressure (357.59 K, Liquid): 440.3 ± 2.2 J/K/mol | molar heat capacity at constant pressure (359.4 K, Liquid): 441.1 ± 2.2 J/K/mol | molar heat capacity at constant pressure (361.2 K, Liquid): 442.4 ± 2.3 J/K/mol | molar heat capacity at constant pressure (363 K, Liquid): 443.4 ± 2.3 J/K/mol | molar heat capacity at constant pressure (364.81 K, Liquid): 444.5 ± 2.3 J/K/mol | molar heat capacity at constant pressure (366.61 K, Liquid): 445.6 ± 2.3 J/K/mol | molar heat capacity at constant pressure (368.41 K, Liquid): 446.3 ± 2.3 J/K/mol
